Test system: Haustaubmilben
Format: in vivo
Procedure: Die zu testende Substanz wurde mit Wasser auf die vorgesehene Einsatzkonzentration verdünnt (s.u.). Haustaubmilben, die aufgrund ihrer großen Ähnlichkeit als Vergleich zu Haarbalgmilben (Demodex) verwendet werden, wurden aus ihrem Futter isoliert und auf 1,5 cm x 1,5 cm große Filterpapierstücke übertragen. Etwa 100 Milben je Ansatz wurden mit 50 µl der zu testenden Substanzen in den vorhergesehenen Verdünnungen betropft. Die überschüssige Flüssigkeit wurde nach 10 Sekunden abgesaugt. Die noch feuchten Filterpapiere mit den Milben wurden nach der Behandlung in eine Petrischale gebracht, die mit einem Deckel und einer Umrandung mit Paraffin verschlossen wurden, um sicherzustellen, dass evtl. überlebende Milben nicht entweichen können. Die Milben können nach Beginn einer Behandlung - gleichgültig mit welchem Mittel - unbeweglich werden, sich jedoch später wieder erholen und ihre Beweglichkeit zumindest für kurze Zeit wiedererlangen. Andererseits ist es auch möglich, dass Milben in den ersten Stunden nach einer Behandlung noch vital erscheinen, jedoch bereits so stark geschädigt sind, dass sie innerhalb eines Tages bis zu 2-3 Tagen sterben. Daher wurden die Petrischalen für einen Tag aufbewahrt, und die Milben dann erst auf ihre Vitalität bewertet.
Die Anzahl der toten und lebenden Milben wurde bestimmt und in % der Sterberate umgerechnet.
Die Versuche wurden zweifach durchgeführt. […]

Sterberate (Mittelwert) (house dust mite, in vivo, topical, 24 h): 10,9%
SMILES: CCCCCCCCC(O)CO (centres unmarked) [Symclariol, 1,2-Decanediol]
Inaktivierung bzw. Eliminierung von Milben (conclusion in words drawn from the test at 2%): wirksam

— patent publication EP2878292A2, “Application of cosmetic compositions for the inactivation and/or elimination of skin mites” (Henkel AG & Co. KGaA, priority 2013, dated 2015)
